According to US9850271B2, “Crystalline solvate forms of a pharmaceutical” (NeurMedix, Inc., priority 2008, dated 2017):

Test: Brief thermal stress of amorphous solid (physical stability)
Assay type: physicochemical
Conditions: brief thermal stress at 40° C.

Compound: C#C[C@]1(O)CC[C@H]2[C@@H]3[C@@H](O)C=C4C[C@@H](O)CC[C@]4(C)[C@H]3CC[C@@]21C [amorphous Compound 1, 17α-ethynyl-androst-5-ene-3β,7β,17β-triol]
- solid state form after brief thermal stress: resulted in crystalline material that contains Form I
